According to PubChem BioAssay AID1902 (Broad Institute, 2009):
pEC50: −log10 of the molar value. Activity calls are given as the source filed them.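 The calls were made as follows: active = EC50 no more than a set limit of log units above the highest dose; inactive = the rest.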

Each compound was assayed against S. pyogenes SKKanGAS, kanamycin survival, BacTiterGlo, 6 h (assay: SKKanGAS survival reduction under kanamycin, dose response, streptokinase promoter inhibitor project, SKKanGAS strain, luminescence, dose confirmation (AID 1902);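 also: lower survival reflects blocked streptokinase promoter driving kanamycin resistance gene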).

| SMILES | pEC50 | EC50 |
| --- | --- | --- |
| Fc1cccc2sc(Nc3nnc(-c4ccccc4)o3)nc12 | 6.08 |  |
| FC(F)(F)c1cccc(NC(=S)NNC(=S)Nc2ccc(Cl)cc2)c1 | 5.32 |  |
| COCCn1c(N)c(C(=O)NS(=O)(=O)c2ccc(C)cc2)c(=O)[nH]c1=O |  | > 15 µM (inactive) |
| CCCCCCCCOC(=O)C1=C(C)Nc2nnnn2C1c1cccs1 (configuration not stated) | 5.46 |  |
| CCn1cc(C(=O)O)c(=O)c2cc(F)c(N3CCN(C(=S)Nc4ccc(OC)cc4)CC3)cc21 | 5.50 |  |
| Oc1ccc(Oc2ccc(Oc3ccc(O)cc3)cc2)cc1 | 5.28 |  |
| CCn1c(=O)c(C(=O)NNC(=O)Cc2ccccc2)c(O)c2ccccc21 | 5.33 |  |
| O=c1c2c(nc3c(-c4ccc(Cl)cc4)c[nH]n13)CCCC2 | 5.34 |  |
| Cc1c(Cc2ccccc2)c(=O)oc2cc(OCc3ccc(C(=O)O)cc3)ccc12 | 5.23 |  |
| O=C(Nc1cccc(-c2nnc(-c3ccccc3)o2)c1)c1ccc(Br)o1 | 5.07 |  |
| O=C(NC(=S)NNC(=O)c1ccccc1O)c1ccccc1 | 5.63 |  |
| CCOC(=O)/C(=N\Nc1ccc(Cl)cc1)c1csc(Nc2ccccc2)n1 | 5.75 |  |
| CCOc1cc(/C=N/Nc2cccc(C(=O)O)c2)ccc1OC(=O)c1ccccc1 | 5.29 |  |
| COc1ccc(C(=O)NC(=S)NNC(=O)COc2ccccc2)cc1 | 6.18 |  |
| O=C(Nc1nnc(-c2ccc(Cl)cc2)o1)c1ccccc1Br | 5.80 |  |
| Brc1ccc(Nc2ncnc3[nH]ncc23)cc1 | 5.07 |  |
| CCCC(=O)NC(c1ccco1)c1cc(Cl)c2cccnc2c1O (configuration not stated) | 5.82 |  |
| O=C(Nc1ccccc1C(=O)Nc1nnc(C(F)(F)F)s1)c1ccccc1Cl | 5.87 |  |
| CCOC(=O)C1=C(O)c2ccccc2C(=O)/C1=C\c1ccc(CC)cc1 | 5.07 |  |
| Cc1ccc(-c2cc(C(F)F)nc(N3CCC(C)CC3)n2)cc1 | 5.26 |  |
| O=C(COc1ccc(F)cc1)Nc1nc(-c2ccccn2)cs1 | 5.26 |  |
| Brc1cc(-c2ccccc2)nc(-c2ccccc2)n1 | 4.92 |  |
| CCOc1cc(/C=C2\C(=O)N(c3nc(-c4ccc(Br)cc4)cs3)N=C2c2ccccc2)ccc1O | 5.75 |  |

| SMILES | pEC50 | EC50 |
| --- | --- | --- |
| Cc1cccc(C)c1OCC(O)Cn1c2ccccc2c2ccccc21 (configuration not stated) | 5.42 |  |
| O=C(/C=C/c1ccco1)Oc1cc(Br)cc(/C=N/NC(=O)c2ccccc2O)c1 | 5.96 |  |
| COc1ccc(-c2cc3nc4ccccc4n3c(N)c2C#N)cc1 | 5.38 |  |
| COc1cc(C(=O)Nc2ccc(-c3nc4cc(C)ccc4o3)c(O)c2)cc(OC)c1OC | 5.41 |  |
| CC(C)Cc1nnc(NC(=O)CCC(=O)N2CCN(c3ccccc3)CC2)s1 |  | > 15 µM (inactive) |
| Oc1ccc(N=Nc2ccc3c(c2)OCCO3)c2ncccc12 | 6.38 |  |
| FC(F)(F)c1nc(N2CCN(c3ccccc3)CC2)nc2c1CCCCC2 | 5.56 |  |
| CCC1CCCCN1S(=O)(=O)c1ccc(C(=O)Nc2nnc(C3CC3)o2)cc1 (configuration not stated) | 5.65 |  |
| CCCCCCCCCCCCN1C(=O)CSC1c1cccnc1 (configuration not stated) | 5.23 |  |
| Cc1cc(/C=C2\SC(=S)N(C)C2=O)c(C)n1-c1ccc(O)cc1 | 5.68 |  |
| CC(C(=O)NC1C(=O)N2C(C(=O)O)=C(CSc3nnnn3C)CSC12)n1cc(Br)cn1 (configuration not stated) | > 7.22 |  |
| Oc1c(C(Nc2ccccn2)c2ccccn2)ccc2cccnc12 (configuration not stated) | 4.97 |  |
| Cc1oc(C(C)(C)C)cc1C(=O)N1CCN(C(c2ccccc2)c2ccccc2)CC1 | 5.54 |  |
| CN(C)c1ccc(/C=C/c2ccc3ccccc3[n+]2C)cc1 | 5.14 |  |
| N#Cc1nc(-c2ccc(OCc3ccccc3Cl)cc2)oc1NCCCn1ccnc1 | 5.49 |  |
| Cc1[nH]n(-c2ccccc2)c(=O)c1/C=N/NC(=O)c1ccccc1F | 5.95 |  |
| COc1ccc(Cl)cc1C(Nc1cccnc1)c1ccc2cccnc2c1O (configuration not stated) | 5.20 |  |
| CCCOC(=O)c1ccc(Oc2c(-c3ccc(OC)cc3O)n[nH]c2C)cc1 | 4.87 |  |
| COc1cccc(C(=O)N2C(C(=O)O)CSC2c2ccccc2Cl)c1 (configuration not stated) |  | > 15 µM (inactive) |
| COc1cc(/C=N/Nc2nc3ccccc3s2)cc([N+](=O)[O-])c1O | 5.05 |  |
| O=C(CSc1nnc(CNC(=O)c2ccccc2)o1)NCc1ccccc1 |  | > 15 µM (inactive) |
| CC(C)(C)[C@H]1CCC(=O)N([C@H](CSc2ccccc2)Cc2ccccc2)CC1 | 5.45 |  |
| O=C(Nc1ccc(OC(F)F)cc1)Nc1cccc(C(F)(F)F)c1 | 5.17 |  |

| SMILES | pEC50 | EC50 |
| --- | --- | --- |
| COC(=O)[C@@]12CCCN1[C@H](c1ccc(-c3cccc(Cl)c3)c(OC)c1)[C@H]1C(=O)N(C)C(=O)[C@H]12 |  | > 15 µM (inactive) |
| Cc1csc2c(N3CCN(C(=O)Nc4ccc(Cl)c(Cl)c4)CC3)ncnc12 | 5.52 |  |
| Cc1nc2c(C(=O)Nc3ccc(N4CCCC(O)C4)cc3)snc2c(=O)[nH]1 (configuration not stated) | 5.35 |  |
| Cc1nn(-c2ccccc2)c(C)c1/C=N/n1c(-c2ccc(C(C)(C)C)cc2)n[nH]c1=S | 5.58 |  |
| O=C(c1ccc(O)cc1)c1ccc(C(=O)c2ccc(O)cc2)cc1 | 5.29 |  |
| O=C(COC(=O)c1ccccc1Br)Nc1nnc(-c2ccccc2)o1 | 6.16 |  |
| CCc1ccc(/C=C/C(=O)c2cc(Br)ccc(=O)c2O)cc1 | 6.38 |  |
| Cc1ccccc1N1CCN(C(=O)CCN2C(=O)c3ccccc3C2=O)CC1 |  | > 15 µM (inactive) |
| Cn1cccc1C(=O)Nc1nc(-c2ccccn2)cs1 | 4.91 |  |
| Fc1ccc(CO/N=C/C2=C(Cl)c3ccccc3CC2)cc1 | 5.40 |  |
| CCOC(=O)c1c(NC(=O)CCS(=O)(=O)c2ccccc2)sc2c1CCN(C)C2 |  | > 15 µM (inactive) |
| Cc1ccc(Nc2cc(C)nn2-c2nc(C)cc(=O)[nH]2)cc1 | > 7.22 |  |
| CC(C)Nc1cc(C(C)(C)C)nc2c(-c3ccccc3)cnn12 | 5.35 |  |
| CC12CCC(C(=O)NNC(=O)c3ccccc3)(OC1=O)C2(C)C (configuration not stated) |  | > 15 µM (inactive) |
| Cn1c(=O)[nH]c(=O)c2c1nc(N1CCC(Cc3ccccc3)CC1)n2Cc1ccccc1 | 5.41 |  |
| C=CCOC(=O)C1=C(C)NC(SCC)=C(C#N)C1c1ccc(Cl)cc1 (configuration not stated) | 5.23 |  |
| O=C(O)c1ccc(N2CCCCS2(=O)=O)cc1 |  | > 15 µM (inactive) |
| Cc1ccc(C(=O)NC2CCCC2)s1 |  | > 15 µM (inactive) |
| N=c1ccn2c(n1)O[C@H]1[C@H](O)[C@@H](CO)O[C@H]12 | 5.31 |  |
| COc1ccc(NS(=O)(=O)c2ccc3nc(COc4cccc5ccccc45)[nH]c3c2)cc1 | 5.22 |  |
| O=C(NCc1ccccn1)C(=O)Nc1nc(C23CC4CC(CC(C4)C2)C3)cs1 | 5.78 |  |
| O=C(/C=C/c1ccco1)Nc1nc(-c2ccccn2)cs1 | 6.44 |  |
| Oc1ccc(/C=N/N(Cc2ccccc2)c2ccccc2)cc1 | 5.21 |  |

| SMILES | pEC50 | EC50 |
| --- | --- | --- |
| c1ccc(/N=C2\N=C(Nc3ccccn3)c3ccccc32)nc1 | 5.61 |  |
| Cc1cc(Br)c(OCc2ccc(C(=O)N/N=C3\CC4CC=CC34)cc2)c(Br)c1 (configuration not stated) | 5.40 |  |
| CCN1/C(=C/C=C/c2sc3ccccc3[n+]2CC)Sc2ccccc21 | 5.67 |  |
| Cc1ccc2ccc(C(Nc3cccc(C(F)(F)F)c3)c3cccnc3)c(O)c2n1 (configuration not stated) | 5.95 |  |
| O=c1[nH]c2ccc(Cl)cc2c(-c2ccccc2)c1SC(=S)N1CCOCC1 | 6.16 |  |
| O=C(N/N=C/c1cccc(F)c1)c1c(O)c2ccccc2[nH]c1=O | 5.60 |  |
| Nc1nc2ccccc2n1/N=C/c1ccc(-c2ccccc2)o1 | 5.71 |  |
| O=c1c(O)c(-c2cccs2)oc2ccccc12 | 5.41 |  |
| Cc1cccc2sc(NNC(=O)c3ccc(S(=O)(=O)N4CC(C)CC(C)C4)cc3)nc12 (configuration not stated) | 6.67 |  |
| COc1cc(C)c(C(=O)CC(=O)c2c(C)cc(OC)cc2C)c(C)c1 | 5.79 |  |
| O=S(=O)(Nc1ccc(N=Nc2ccc(O)c3ccccc23)cc1)c1ccccc1 | 5.15 |  |
| COc1ccc2cc3c(N)nn(C(=O)C4CCC(C(C)(C)C)CC4)c3nc2c1 (configuration not stated) | 5.71 |  |
| N#C/C(=C(/O)Cc1cccc2ccccc12)c1nc2ccccc2s1 | 5.87 |  |
| COCc1cc(=O)[nH]c(Nc2nc3ccc(C)cc3o2)n1 | 5.64 |  |
| COc1cccc(CC(=O)OCC(=O)Nc2nnc(-c3ccccc3)o2)c1 | 5.34 |  |
| O=C(Nc1scc(-c2ccc(Br)cc2)c1C(=O)O)c1ccccc1F | 5.73 |  |
| O=C(Nc1ccc([N+](=O)[O-])cc1)Nc1nc(-c2ccc(Cl)s2)cs1 | 5.53 |  |
| CC(C)Cn1c(=O)c(C(=O)Nc2ccccc2S(N)(=O)=O)c(O)c2ccccc21 | 5.07 |  |
| O=Nc1c(O)c2ccccc2c2ccccc12 | 5.63 |  |
| COc1ccc(C(=O)NC(=S)NNC(=O)c2ccccc2O)cc1 | 5.84 |  |
| Oc1ccccc1-c1nc2c3ccccc3c3ccccc3c2[nH]1 | 5.62 |  |
| O=C(Nc1cccc(C(F)(F)F)c1)c1cc2c(=O)c3ccccc3oc2nc1C(F)(F)F | 5.14 |  |
| NS(=O)(=O)c1ccc(N/N=C2/CCCCC2C2CCCCC2)c([N+](=O)[O-])c1 (configuration not stated) | 5.51 |  |

| SMILES | pEC50 | EC50 |
| --- | --- | --- |
| CCCCCC(=O)NNC(=O)c1c(O)c2ccccc2n(CC)c1=O | 5.87 |  |
| CCCOC(=O)c1ccc(Oc2cn[nH]c2-c2ccc(OCC)cc2O)cc1 | 5.86 |  |
| CCSc1nnc(NC(=O)c2nc(-c3ccccc3)n(-c3ccccc3)n2)s1 | 5.46 |  |
| O=C(N/N=C/c1cc([N+](=O)[O-])ccc1O)c1cccc(NC(=O)c2cccc(Cl)c2)c1 | 5.33 |  |
| Cc1cccnc1Nc1nc(-c2ccccn2)cs1 | 6.15 |  |
| O=[N+]([O-])c1cc(S(=O)(=O)C(F)(F)F)ccc1Sc1nc2ccccc2[nH]1 | 5.39 |  |
| Fc1ccc(N2CCN(Cc3cn[nH]c3-c3ccccc3)CC2)cc1 |  | > 15 µM (inactive) |
| CCCCCCCCCCCCOC(=O)C[N+](C)(C)C | 5.52 |  |
| S=C(NCCSCc1ccc(Cl)c(Cl)c1)Nc1ccccc1 | 5.43 |  |
| CCCSc1cc(N2CCCC2)nc(-c2ccccc2)n1 | 5.17 |  |
| Cc1cccc(Cc2cnc(N3C(=N)SC(C)C3=O)s2)c1 (configuration not stated) | 6.88 |  |
| COCCOC(=O)c1c(C)nc(SCC(=O)Nc2ccc(C)cc2)c(C#N)c1-c1ccco1 | 5.18 |  |
| Cc1cccc(OCC(=O)Nc2ccncc2)c1 |  | > 15 µM (inactive) |
| CC(C)OC(=O)c1c2nc3ccccc3nc2n2c1[nH]c(=O)c1ccccc12 | 6.04 |  |
| COc1cccc(N=Nc2ccc3cccnc3c2O)c1 | > 7.22 |  |
| CC1=NNC(=O)/C1=C\c1cn(-c2ccccc2)nc1-c1ccc(Cl)cc1 | 5.25 |  |
| COC(=O)c1ccc(N2CCN(C)CC2)c(NC(=O)COc2ccc(C)cc2)c1 |  | > 15 µM (inactive) |
| CCOc1cc(/C=C(\C#N)c2nc(-c3cccs3)c(NC(C)=O)s2)ccc1O | 6.41 |  |
| CCCCNc1c2c3c(cccc3n(C)c1=O)C(=O)c1ccccc1-2 | 5.20 |  |
| O=C(NNC1=C(C(=O)C(F)(F)F)CCC1)c1ccc(Br)cc1 | 6.03 |  |
